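Tested at 5 concentrations; 48 h exposure; 96-well plates; endpoints linearly interpolated, else capped at highest concentration. TGI: concentration producing complete growth inhibition.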

From PubChem BioAssay (NCI) come the findings set out here.

Holding throughout (test): NCI tumour cell line growth inhibition, 48 h
Experiment [1] concerns SNB-19 CNS.
The test system of experiment [2] is COLO 205 colon.
Experiment [3] has as its system KM12 colon.
For experiment [4], the system named is CCRF-CEM leukemia.
Experiment [5] deals with ACHN renal.
The subject of experiment [6] is HOP-92 NSCLC.
For experiment [7], the system named is SW-620 colon.
In experiment [8] the test system is T-47D breast.
The test system of experiment [9] is SF-268 CNS.
Experiment [10] deals with MOLT-4 leukemia.
The subject of experiment [11] is NCI-H226 lung.
In experiment [12] the test system is CAKI-1 renal.
The subject of experiment [13] is DU-145 prostate.
In experiment [14] the test system is MCF7 breast.
Experiment [15] deals with NCI-H522 lung.
Experiment [16] concerns EKVX NSCLC.
For experiment [17], the system named is MDA-MB-231 breast.

Turning to `CCOC(=O)NNC1(SC)NC(=O)c2c(cc(Cl)oc2=O)O1` (configuration not stated), the TGI was found to be 25.4 µM in [1]; 25.9 µM in experiment [2]; 23.6 µM in [3]; 10.5 µM in [4]; 4.79 µM in experiment [5]; 4.63 µM in experiment [6]. Further, the TGI in experiment [7] is > 37 µM; in experiment [8] it was 29.9 µM; in experiment [9], 10.7 µM; in [10] it was 10.3 µM; in experiment [11] it was 43.8 µM; in [12] it was 8.02 µM. Further, the TGI in [13] was 19.7 µM; in [14] it was 5.84 µM; in [15] it was 6.26 µM; in experiment [16] it was 20.4 µM; in experiment [17], 25.1 µM.

`CCO[C@H]1C[C@@H](c2ccccc2)[C@]2(C)C[C@H](C(=O)OC)ON2O1`: the TGI in [1], in experiment [2], in [3], in experiment [4], in experiment [5] and in [6] was > 100 µM each time. Further, the TGI in experiment [7], in experiment [8], in [9], in experiment [10], in experiment [11] and in [12] was > 100 µM in each case. Moreover, the TGI in experiment [13], in experiment [14], in experiment [15], in experiment [16] and in experiment [17] was > 100 µM each time.

As for `O=C1CNc2cc(N3CCN(c4cccc(C(F)(F)F)c4)CC3)ccc2N1`, the TGI in experiment [1] was > 100 µM; in [2], > 91.7 µM; in experiment [3], > 100 µM; in experiment [4], > 100 µM; in experiment [5] it was > 100 µM; in experiment [6], > 78.8 µM. In addition, the TGI is > 100 µM in [7]; > 100 µM in [8]; > 100 µM in [9]; > 84.3 µM in experiment [10]; > 100 µM in [11]; > 100 µM in [12]. Moreover, the TGI was > 100 µM in [13]; > 90.1 µM in [14]; 46 µM in [15]; > 100 µM in experiment [16]; > 100 µM in experiment [17].

Regarding `CCC(/C=C/c1ccccc1)=N\NC(=S)N/N=C(/C=C/c1ccccc1)CC`, the TGI in experiment [1], in experiment [2], in experiment [3], in experiment [4], in experiment [5] and in experiment [6] was > 100 µM each time. Moreover, the TGI in [7], in experiment [8], in [9], in [10], in experiment [11] and in experiment [12] was > 100 µM each time. The TGI in experiment [13], in experiment [14], in [15], in experiment [16] and in experiment [17] was > 100 µM throughout.

Regarding `COc1ccc(CN=C2Nc3ccncc3S(=O)(=O)N2c2ccccc2)cc1`, the TGI in experiment [1] was > 100 µM; in [2], > 100 µM; in [3], > 100 µM; in experiment [4], 82.4 µM; in experiment [5] it was > 100 µM; in experiment [6] it was > 100 µM. Besides, the TGI in experiment [7] was > 100 µM; in experiment [8], > 100 µM; in experiment [9], > 100 µM; in experiment [10], 44.7 µM; in [11] it was > 100 µM; in experiment [12], > 100 µM. Moreover, the TGI in experiment [13], in experiment [14], in [15], in experiment [16] and in experiment [17] was > 100 µM in each case.

Turning to `COc1ccc(C2c3cc4c(cc3OC(N3CCOCC3)C2C)OCO4)c(OC)c1` (configuration not stated), the TGI in experiment [1] was 28.9 µM; in experiment [2], > 57.6 µM; in [3], 34 µM; in [4] it was 38.1 µM; in experiment [5], 93.8 µM; in experiment [6] it was 15.9 µM. Also, the TGI in experiment [7] is 52.5 µM; in experiment [8], > 54.8 µM; in [9] it was 53 µM; in experiment [10], 31.9 µM; in [11], 14.4 µM; in experiment [12] it was 62.1 µM. The TGI is 54.7 µM in experiment [13]; 33.8 µM in experiment [14]; 8.95 µM in experiment [15]; > 85.3 µM in experiment [16]; 32.5 µM in experiment [17].

Consider `C#CCSc1cnc2ccccc2c1Sc1c[nH]c2ccccc2c1=O`, for which the TGI in experiment [1] is > 100 µM; in experiment [2] it was > 100 µM; in experiment [3], 65 µM; in [4], > 100 µM; in experiment [5], 36.7 µM; in [6], 61.2 µM. In addition, the TGI in experiment [7] is > 100 µM; in [8], 42.5 µM; in experiment [9], > 100 µM; in experiment [10], > 100 µM; in experiment [11], 89.9 µM; in experiment [12], > 100 µM. The TGI in experiment [13] is > 100 µM; in experiment [14] it was > 100 µM; in experiment [15] it was 29.1 µM; in [16] it was > 100 µM; in [17] it was > 100 µM.

Take `Cc1ccc(N2C(=O)CC(=O)N(NC(=O)C(C)Oc3ccccc3C)C2=S)cc1` (configuration not stated): the TGI in experiment [1] was > 100 µM; in experiment [2], > 100 µM; in experiment [3], > 100 µM; in [4] it was 5.59 µM; in experiment [5], > 100 µM; in experiment [6], > 100 µM. Further, the TGI in experiment [7], in experiment [8], in [9], in experiment [10], in experiment [11] and in [12] was > 100 µM throughout. Also, the TGI in experiment [13], in experiment [14], in [15], in experiment [16] and in [17] was > 100 µM in each case.

Regarding `CC1C=C(NCC2(CO)CCC2)NC(N)=N1` (configuration not stated), the TGI in [1], in experiment [2], in experiment [3], in experiment [4], in experiment [5] and in experiment [6] was > 100 µM each time. Further, the TGI in experiment [7], in experiment [8], in experiment [9], in [10], in experiment [11] and in experiment [12] was > 100 µM in each case. Moreover, the TGI in experiment [13], in experiment [14], in experiment [15], in [16] and in [17] was > 100 µM in each case.

On to `CCOC(=O)C1(Cc2ccccc2)CCN(C(=O)c2ccccc2)C2C1C2(Cl)Cl` (configuration not stated), for which the TGI was > 100 µM in experiment [1]; 35.9 µM in [2]; 94.9 µM in experiment [3]; 54.1 µM in [4]; 54.8 µM in experiment [5]; 55.6 µM in experiment [6]. The TGI in experiment [7] was > 100 µM; in [8] it was 62.4 µM; in [9], 91.8 µM; in experiment [10] it was 52.9 µM; in experiment [11], 63.4 µM; in [12], 75 µM. Further, the TGI in [13] is > 100 µM; in experiment [14] it was 71 µM; in experiment [15], 42.5 µM; in experiment [16], 71.7 µM; in experiment [17], 43.9 µM.

On to `COc1cccc2c1C(=O)c1ccc3cc(CO)cc(O)c3c1C2=O`, for which the TGI was determined as 5.85 µM in experiment [1]; 3.32 µM in [2]; 6.14 µM in experiment [3]; 2.02 µM in experiment [4]; 3.7 µM in [5]; 2.84 µM in [6]. Besides, the TGI in [7] came out at 1.2 µM; in experiment [8] it was 4.96 µM; in [9], 5.18 µM; in [10], 4.22 µM; in experiment [11], 5.54 µM; in [12] it was 7.18 µM. Moreover, the TGI in [13] is 3.31 µM; in [14] it was 1.56 µM; in experiment [15], 5.89 µM; in [16], 4.89 µM; in experiment [17], 2.58 µM.

With `O=C(CN=C(CN(c1ccccc1)c1ccccc1)Oc1c([N+](=O)[O-])cc([N+](=O)[O-])cc1[N+](=O)[O-])N1CCNCC1`, the TGI in experiment [1], in [2], in experiment [3], in experiment [4], in experiment [5] and in [6] was > 100 µM in each case. Also, the TGI in experiment [7], in experiment [8], in [9], in experiment [10], in experiment [11] and in [13] was > 100 µM throughout. The TGI in [14], in experiment [15], in experiment [16] and in experiment [17] was > 100 µM each time.

`O=C(/C(Cl)=C/c1ccccc1)c1ccccc1`: the TGI in [1] was determined as 29.3 µM; in experiment [3] it was 14.9 µM; in experiment [4], 11.5 µM; in [5], 4.81 µM; in experiment [6], 12.9 µM; in [8] it was 27.1 µM. Besides, the TGI was 21.9 µM in experiment [9]; > 21.3 µM in [10]; 18.1 µM in [11]; 3.97 µM in experiment [12]; 29.8 µM in experiment [13]; > 28.4 µM in experiment [14]. For the same compound, the TGI is 3.76 µM in [15], 25.6 µM in experiment [16] and 20.6 µM in [17].

Regarding `C=CCOc1ccc(C2c3c([nH][nH]c3=O)CC(C)(O)C2C(=O)OC)cc1OC` (configuration not stated), the TGI in experiment [1], in experiment [2], in experiment [3], in [4], in experiment [5] and in [6] was > 100 µM throughout. For the same compound, the TGI in [7], in experiment [8], in experiment [9], in experiment [10], in experiment [12] and in [13] was > 100 µM each time. Moreover, the TGI in experiment [14], in experiment [15], in experiment [16] and in experiment [17] was > 100 µM throughout.

For the compound `C/C(=N/NC(=S)N(Cc1ccccn1)Cc1ccccn1)c1cnccn1`, the TGI in experiment [1] was 18.8 µM; in experiment [3], 19.7 µM; in experiment [4], > 100 µM; in experiment [5] it was 2.39 µM; in [6], > 37.6 µM; in [7], 49.2 µM. For the same compound, the TGI in experiment [8] is > 33.8 µM; in [9], 14 µM; in experiment [10] it was > 34.4 µM; in experiment [11] it was 0.157 µM; in experiment [12], 8.08 µM; in experiment [13], > 33.3 µM. For the same compound, the TGI was > 100 µM in [14], 1.56 µM in experiment [15], 7.4 µM in experiment [16] and 21.7 µM in [17].

In the case of `CC1(C)N=C(N)N=C(N)N1c1ccc(CCCCc2ccc(Cl)cc2Cl)cc1`, the TGI in experiment [1] came to 11 µM; in experiment [2], 4.88 µM; in experiment [3], 2.19 µM; in experiment [4], 76 µM; in experiment [5], 16.1 µM; in experiment [6] it was 18 µM. Further, the TGI was 12.9 µM in [7]; 23.9 µM in experiment [8]; 15.9 µM in experiment [9]; > 100 µM in experiment [10]; 9.08 µM in [12]; 17.3 µM in experiment [13]. The TGI in [14] was determined as 11.8 µM; in experiment [15], 14.3 µM; in experiment [16], 45.1 µM; in experiment [17], 16.6 µM.

Regarding `O=C(/C=C/c1ccc(Cl)c(Cl)c1)CCN1CCN(CCC(=O)/C=C/c2ccc(Cl)c(Cl)c2)CC1`, the TGI in [2] was 70.8 µM; in experiment [3] it was 40.6 µM; in experiment [4] it was > 100 µM; in experiment [5], 34.5 µM; in experiment [6], 64.8 µM; in experiment [7] it was 52.1 µM. The TGI was 77.4 µM in experiment [8]; > 100 µM in [9]; > 100 µM in [10]; 72.8 µM in experiment [11]; 31.8 µM in experiment [12]; 54.4 µM in [13]. Moreover, the TGI in [14] was 19.4 µM; in experiment [15] it was 31.6 µM; in experiment [16] it was > 100 µM; in experiment [17], 56.7 µM.
